One data set can be described thus: Water solubility. The class given is physicochemical.
Data set [1] has as its system MDA-MB-231 breast cancer cells. The data set is described as follows: MTS cell viability assay with and without UV-A exposure. The data set is classed as cell-based. The settings on record: compound added pre-UV exposure (UV-A 30 min), 100 μM and 10 μM, MTS after 24 h, vs. VC, n=4. As to the method: After 24 hours incubation at 37° C., varying concentrations of 2-TPPMDBTO were added and incubated for 1 hour at 37° C. One plate with cells were then left at room temperature covered for 15 minutes (cells without UV). The second plate was exposed to UV-A in a Luzchem photoreactor with 8 LZC-UVA lamps for 15 minutes (Cells with UV). Plates were then incubated for 24 hours at 37° C. and then a MTS cell viability assay (Promega) was performed. Cell viability assay was run on a Flexstation3 mulitmode plate reader and percent viability was calculated. Statistical analyses were performed using GraphPad Prism program.
FIGS. 6A-C show cell studies wherein MDA-MB-231 breast cancer cells were plated at 10,000 cells/well on three 96 well plates. After 24 hours incubation at 37° C., varying concentrations of MA-1 and MA-2 were added and incubated for 1 hour at 37° C. on only two plates (pre-UV and no UV exposure). One plate with cells were then left at room temperature covered for 30 min (no UV). The second plate (pre-UV) and the third plate (post-UV) were exposed to UV-A in a Luzchem photoreactor with 8 LZC-UVA lamps for 30 min. Varying concentrations of MA-1, MA-2, MA-3 and MA-4 were added to post UV plate after irradiation. […] Cell viability assay was run on a Flexstation3 mulitmode plate reader and percent viability was calculated. […]
On the technique in general: Tetrazolium dyes change colour on reduction, which living cells bring about.

The test system of another data set is cell cycle progression. The data set is described as follows: Cell cycle progression with, without or before UV-A irradiation. The class given is cell-based.

The values below come from patent US12054470B2, “Photoswitchable dibenzothienylmethyl triphenylphosphonium derivatives and methods of treating cancer therewith” (Saint Louis University, priority 2018, dated 2024).

On to `[O-][s+]1c2ccccc2c2cc(C[P+](c3ccccc3)(c3ccccc3)c3ccccc3)ccc21` (stereo not drawn) [MA-1, (5-oxo-2-dibenzothienylmethyl)triphenylphosphonium], for which the water solubility entry in the data set “Water solubility” is “water soluble”.
Regarding “(5-oxo-2-dibenzothienylmethyl)triphenylphosphonium [MA-1]”, the “% cell viability” value in data set [1] is given as “decrease in % cell viability is observed”. The “cell cycle progression / cell cycle arrest” value with cell cycle progression (compound administered in the absence of UV or after irradiation) is on record as “the progression of the cell cycle is not arrested”; in the data set with cell cycle progression (compound administered in the absence of UV or after irradiation, listed as 1a), “no significant change in the progress was seen”; in the data set with cell cycle progression (in the presence of UV-A irradiation), “cell cycle progression is arrested”; with cell cycle progression (in the presence of UV-A irradiation, listed as 1a), “presence of UV-A irradiation is necessary to lead to cell cycle arrest”.
